{"source": "PubChem BioAssay AID1259408", "about": "(Genetic Toxicology Data Bank (GENE-TOX), 2018)", "tested_on": "GENE-TOX genotoxicity assays, various organisms and cells", "test": "GENE-TOX mutagenicity studies", "settings": "for call: Assay Type: In vivo carcinogenicity studies", "key": {"[1]": {"settings": "Species/Cell Type: Nonhuman, Assay Code: CCGT, Evaluation Type: Evaluation A (Pre-1980)"}, "[2]": {"settings": "Species/Cell Type: Salmonella typhimurium (one or more of the five standard strains: TA98, TA100, TA1535, TA1537, and TA1538), Assay Type: Histidine reverse gene mutation, Ames assay, Assay Code: SALT, Evaluation Type: Evaluation A (Pre-1980)"}, "[3]": {"settings": "Species/Cell Type: Salmonella typhimurium (one or more of the five standard strains: TA98, TA100, TA1535, TA1537, and TA1538), Assay Type: Histidine reverse gene mutation, Ames assay, Assay Code: SAL+, Evaluation Type: Evaluation A (Pre-1980)"}}, "note": "Calls of active or inactive are those of the source. No rule for the calls is given here.", "data": [{"smiles": "Oc1cccc2cc3ccc4cccc5ccc(c12)c3c45", "values": [{"measurement": "call", "setting": "[1]", "result": "no conclusion"}, {"measurement": "mutagenic call", "setting": "[2]", "result": "no conclusion"}]}, {"smiles": "CC1CCOS1(=O)=O", "note": "(stereo unspecified)", "values": [{"measurement": "mutagenic call", "setting": "Species/Cell Type: Schizosaccharomyces pombe, Assay Type: Reverse gene mutation, Assay Code: YEZ+, Evaluation Type: Evaluation A (Pre-1980)", "result": "active; positive"}]}, {"smiles": "O=[N+]([O-])c1ccc(/C=N\\O)o1", "values": [{"measurement": "mutagenic call", "setting": "Species/Cell Type: Escherichia coli WP2, Assay Type: Tryptophan reverse gene mutation, Assay Code: WP2-, Evaluation Type: Evaluation A (Pre-1980)", "result": "inactive; negative"}, {"measurement": "mutagenic call", "setting": "Species/Cell Type: Escherichia coli WP2 UVRA, Assay Type: Tryptophan reverse gene mutation, Assay Code: WPU+D, Dose Response: With dose response, Evaluation Type: Evaluation A (Pre-1980)", "result": "active; positive"}, {"measurement": "mutagenic call", "setting": "[3]", "result": "active; positive"}]}, {"smiles": "O=[N+]([O-])c1ccc(-c2csc(Nc3ccccc3)n2)o1", "values": [{"measurement": "mutagenic call", "setting": "Species/Cell Type: Escherichia coli WP2, Assay Type: Tryptophan reverse gene mutation, Assay Code: WP2+, Evaluation Type: Evaluation A (Pre-1980)", "result": "active; positive"}, {"measurement": "mutagenic call", "setting": "Species/Cell Type: Escherichia coli WP2 UVRA, Assay Type: Tryptophan reverse gene mutation, Assay Code: WPU-, Evaluation Type: Evaluation A (Pre-1980)", "result": "inactive; negative"}]}, {"smiles": "c1ccc2c3c4c(ccc5cccc(c54)[C@H]4O[C@@H]34)cc2c1", "values": [{"measurement": "mutagenic call", "setting": "Species/Cell Type: Chinese hamster lung (V79) cells, Assay Type: Forward gene mutation at the HPRT or ouabain locus, Assay Code: V79+, Evaluation Type: Evaluation A (Pre-1980)", "result": "active; positive"}, {"measurement": "call", "setting": "[1]", "result": "no conclusion"}, {"measurement": "mutagenic call", "setting": "[3]", "result": "active; positive"}]}, {"smiles": "CCOP(=S)(OCC)SCSCC", "values": [{"measurement": "mutagenic call", "setting": "Species/Cell Type: Bacillus subtilis (H17 vs M45), Assay Type: Rec-assay, spot test, DNA effects (bacterial DNA repair), Assay Code: REWT, Evaluation Type: Evaluation A (Pre-1980)", "result": "no conclusion"}, {"measurement": "mutagenic call", "setting": "Species/Cell Type: Drosophila melanogaster, Assay Type: Sex-linked recessive lethal gene mutation, Assay Code: SRL-, Evaluation Type: Evaluation A (Pre-1980)", "result": "inactive; negative"}, {"measurement": "mutagenic call", "setting": "Species/Cell Type: Escherichia coli WP2 UVRA, Assay Type: Tryptophan reverse gene mutation, Assay Code: WPU-*, Activation: With metabolic activation, Evaluation Type: Evaluation A (Pre-1980)", "result": "inactive; negative"}, {"measurement": "mutagenic call", "setting": "Species/Cell Type: Escherichia coli polA (W3119 vs P3478), Assay Type: Rec-assay, DNA effects (bacterial DNA repair), Assay Code: RE1T, Evaluation Type: Evaluation A (Pre-1980)", "result": "no conclusion"}, {"measurement": "mutagenic call", "setting": "Species/Cell Type: Hordeum vulgare (barley), Assay Type: Chromosome aberrations, Assay Code: HOC+D, Dose Response: With dose response, Evaluation Type: Evaluation A (Pre-1980)", "result": "active; positive"}, {"measurement": "mutagenic call", "setting": "Species/Cell Type: Human diploid fibroblasts, Assay Type: Unscheduled DNA synthesis (UDS) in vitro, DNA effects, Assay Code: UDH-, Evaluation Type: Evaluation A (Pre-1980)", "result": "inactive; negative"}, {"measurement": "mutagenic call", "setting": "Species/Cell Type: Human, Assay Type: Sister-chromatid exchange (SCE) in vitro, Assay Code: SC1+D, Dose Response: With dose response, Evaluation Type: Evaluation B (Post-1980)", "result": "active; positive"}, {"measurement": "mutagenic call", "setting": "Species/Cell Type: Mammalian polychromatic erythrocytes, Assay Type: Micronucleus test, chromosome aberrations, Assay Code: MNT+U, Dose Response: Unconfirmed positive response, Evaluation Type: Evaluation B (Post-1980)", "result": "active; positive"}, {"measurement": "mutagenic call", "setting": "Species/Cell Type: Saccharomyces cerevisiae, Assay Type: Mitotic recombination or gene conversion, Assay Code: YEH-, Evaluation Type: Evaluation A (Pre-1980)", "result": "inactive; negative"}, {"measurement": "mutagenic call", "setting": "[2]", "result": "no conclusion"}]}, {"smiles": "Oc1ccc(N=Nc2ccccc2)cc1", "values": [{"measurement": "mutagenic call", "setting": "Species/Cell Type: Salmonella typhimurium (one or more of the five standard strains: TA98, TA100, TA1535, TA1537, and TA1538), Assay Type: Histidine reverse gene mutation, Ames assay, Assay Code: SAL-, Evaluation Type: Evaluation A (Pre-1980)", "result": "inactive; negative"}]}, {"smiles": "CN=[N+](C)[O-]", "values": [{"measurement": "mutagenic call", "setting": "Species/Cell Type: Drosophila melanogaster, Assay Type: Sex-linked recessive lethal gene mutation, Assay Code: SRL+, Evaluation Type: Evaluation A (Pre-1980)", "result": "active; positive"}, {"measurement": "mutagenic call", "setting": "Species/Cell Type: Mouse (BALB/c-3T3) cells, Assay Type: Cell transformation, Assay Code: CTB-, Evaluation Type: Evaluation A (Pre-1980)", "result": "inactive; negative"}, {"measurement": "call", "setting": "Species/Cell Type: Nonhuman, Assay Code: CCG+, Evaluation Type: Evaluation A (Pre-1980)", "result": "active; positive"}, {"measurement": "mutagenic call", "setting": "Species/Cell Type: Salmonella typhimurium (one or more of the five standard strains: TA98, TA100, TA1535, TA1537, and TA1538), Assay Type: Histidine reverse gene mutation, Ames assay, Assay Code: SAL+*, Activation: With metabolic activation, Evaluation Type: Evaluation A (Pre-1980)", "result": "active; positive"}, {"measurement": "mutagenic call", "setting": "Species/Cell Type: Salmonella typhimurium, Assay Type: Forward and reverse gene mutation, host-mediated assay, Assay Code: HMA+, Evaluation Type: Evaluation A (Pre-1980)", "result": "active; positive"}]}, {"smiles": "c1c(N2CC2)nc(N2CC2)nc1N1CC1", "values": [{"measurement": "mutagenic call", "setting": "Species/Cell Type: Aspergillus nidulans, Assay Type: Reverse gene mutation, Assay Code: ASR+, Evaluation Type: Evaluation A (Pre-1980)", "result": "active; positive"}]}, {"smiles": "COc1ccc(N)c2c1C(=O)c1ccccc1C2=O", "values": [{"measurement": "mutagenic call", "setting": "[3]", "result": "active; positive"}]}, {"smiles": "OC1C=Cc2c(c3cc4ccccc4cc3c3ccccc23)[C@H]1O", "note": "(stereo partly specified)", "values": [{"measurement": "mutagenic call", "setting": "Species/Cell Type: Nonhuman, Assay Type: Sister-chromatid exchange (SCE) in vitro, Assay Code: SC2+D, Dose Response: With dose response, Evaluation Type: Evaluation B (Post-1980)", "result": "active; positive"}]}, {"smiles": "F[Si-2](F)(F)(F)(F)F", "values": [{"measurement": "mutagenic call", "setting": "Species/Cell Type: Mammalian polychromatic erythrocytes, Assay Type: Micronucleus test, chromosome aberrations, Assay Code: MNTT, Evaluation Type: Evaluation B (Post-1980)", "result": "no conclusion"}]}]}
